Columns and labels:
Experiment in all cases: relative viability (nuclei count vs DMSO), 5 days (fraction); higher = more cells survive
[1] = compound: CC1=CC(=NN1)NC2=CC(=NC(=N2)/C=C/C3=CC=CC=C3)N4CCN(CC4)C + C[C@]1(O)C[C@@H](c2nc(-c3ccc4ccc(-c5ccccc5)nc4c3)c3c(N)nccn32)C1 [Linsitinib] (partner 1 µM)
Outline: (§1)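 Nuclei were stained with Hoechst during a one-step fixation (final 0.05% Triton X-100, 1% formaldehyde, 1 ug/ml Hoechst) carried out 5 days after dosing, then counted on 4× images. The cells, lung cancer lines in 1536-well plates, had been dosed by pin tool the day after seeding with one drug alone or a fixed anchor-drug dose plus five library-drug doses (not always all listed) in √10 steps. Relative viability is the nuclei count in treated wells divided by that in vehicle wells, and each value is the median of duplicate plates.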

Obatoclax + Dasatinib = compound: COC1=CC(c2cc3ccccc3[nH]2)=N/C1=C\c1[nH]c(C)cc1C [Obatoclax] + Cc1nc(Nc2ncc(C(=O)Nc3c(C)cccc3Cl)s2)cc(N2CCN(CCO)CC2)n1 [Dasatinib] (partner 0.075 µM)
Outline: as §1

Obatoclax + Foretinib = compound: COC1=CC(c2cc3ccccc3[nH]2)=N/C1=C\c1[nH]c(C)cc1C [Obatoclax] + COc1cc2c(Oc3ccc(NC(=O)C4(C(=O)Nc5ccc(F)cc5)CC4)cc3F)ccnc2cc1OCCCN1CCOCC1 [Foretinib] (partner 0.25 µM)
Outline: as §1

Obatoclax + Phenformin = compound: COC1=CC(c2cc3ccccc3[nH]2)=N/C1=C\c1[nH]c(C)cc1C [Obatoclax] + N=C(N)NC(=N)NCCc1ccccc1 [Phenformin] (partner 250 µM)
Outline: as §1

Row | Cell Line | relative viability ([1]; first compound 0.08 µM) | relative viability ([1]; first compound 0.253 µM) | relative viability ([1]; first compound 0.8 µM) | relative viability ([1]; first compound 2.53 µM) | relative viability ([1]; first compound 8 µM) | relative viability (Obatoclax + Dasatinib; first compound 0.01 µM) | relative viability (Obatoclax + Dasatinib; first compound 0.03162 µM) | relative viability (Obatoclax + Dasatinib; first compound 0.1 µM) | relative viability (Obatoclax + Dasatinib; first compound 0.3162 µM) | relative viability (Obatoclax + Dasatinib; first compound 1 µM) | relative viability (Obatoclax + Foretinib; first compound 0.01 µM) | relative viability (Obatoclax + Foretinib; first compound 0.03162 µM) | relative viability (Obatoclax + Foretinib; first compound 0.1 µM) | relative viability (Obatoclax + Foretinib; first compound 0.3162 µM) | relative viability (Obatoclax + Foretinib; first compound 1 µM) | relative viability (Obatoclax + Phenformin; first compound 0.01 µM) | relative viability (Obatoclax + Phenformin; first compound 0.03162 µM) | relative viability (Obatoclax + Phenformin; first compound 0.1 µM) | relative viability (Obatoclax + Phenformin; first compound 0.3162 µM) | relative viability (Obatoclax + Phenformin; first compound 1 µM)
1 | HCC-78 | 0.42 | 0.568 | 0.494 | 0.391 | 0.152 | 0.48 | 0.406 | 0.419 | 0.324 | 0.418 | 0.532 | 0.53 | 0.608 | 0.553 | 0.59 | 0.8 | 0.634 | 0.868 | 0.642 | 0.67
2 | HCC-366 | 0.478 | 1.13 | 0.64 | 0.102 | 0.0084 | 0.667 | 0.574 | 0.39 | 0.574 | 0.533 | 0.932 | 0.922 | 0.916 | 0.549 | 0.919 | 0.581 | 0.565 | 0.657 | 0.628 | 0.478
3 | HCC-827 | 0.955 | 1.06 | 0.932 | 0.814 | 0.635 | 0.451 | 0.292 | 0.417 | 0.407 | 0.388 | 1.01 | 1.04 | 1.08 | 0.964 | 1.05 | 0.424 | 0.409 | 0.46 | 0.373 | 0.435
4 | HOP-62 | 0.959 | 1.11 | 0.99 | 0.875 | 0.326 | 0.718 | 0.64 | 0.439 | 0.787 | 0.534 | 1.16 | 0.933 | 1.11 | 1.04 | 1.06 | 0.693 | 0.699 | 0.604 | 0.662 | 0.404
5 | IA-LM | 0.561 | 0.61 | 0.878 | 0.752 | 0.729 | – | – | – | – | – | 1.17 | 1.18 | 1.03 | 0.624 | 0.0739 | – | – | – | – | –
6 | LC-2-ad | 0.732 | 0.803 | 0.473 | 0.122 | 0.0815 | 0.696 | 0.504 | 0.507 | 0.394 | 0.463 | 0.997 | 0.876 | 0.869 | 0.897 | 0.525 | 0.637 | 0.49 | 0.541 | 0.585 | 0.499
7 | LCLC-97TM1 | 0.185 | 0.205 | 0.204 | 0.165 | 0.112 | 0.928 | 0.746 | 0.916 | 0.842 | 0.682 | 0.996 | 0.954 | 0.873 | 0.872 | 0.9 | 0.417 | 0.408 | 0.458 | 0.485 | 0.421
8 | LCLC-103H | 1.16 | 1.09 | 1.13 | 1.12 | 0.809 | 0.458 | 0.464 | 0.411 | 0.517 | 0.53 | 0.792 | 0.698 | 0.778 | 0.668 | 0.8 | 0.317 | 0.28 | 0.327 | 0.321 | 0.34
9 | LK-2 | 0.522 | 0.876 | 0.75 | 0.31 | 0.104 | 0.329 | 0.263 | 0.394 | 0.375 | 0.229 | 1.12 | 1.28 | 1.51 | 1.26 | 1.11 | 0.547 | 0.485 | 0.483 | 0.464 | 0.346
10 | LOU-NH91 | 0.953 | 1.01 | 0.98 | 0.775 | 0.501 | 0.557 | 0.511 | 0.379 | 0.486 | 0.51 | 0.918 | 0.917 | 0.787 | 0.904 | 0.819 | 0.716 | 0.657 | 0.499 | 0.403 | 0.432
11 | LU99A | 0.489 | 0.485 | 0.466 | 0.228 | 0.138 | 0.471 | 0.568 | 0.575 | 0.434 | 0.261 | 0.875 | 0.792 | 0.774 | 0.619 | 0.714 | 0.885 | 0.854 | 0.74 | 0.77 | 0.417
12 | NCI-H522 | – | – | – | – | – | 1.03 | 0.757 | 0.696 | 0.851 | 0.573 | – | – | – | – | – | 0.614 | 0.62 | 0.633 | 0.688 | 0.603
13 | NCI-H1299 | 0.986 | 0.967 | 1.03 | 0.754 | 0.295 | – | – | – | – | – | 1.08 | 1.12 | 1.08 | 1.08 | 1.05 | – | – | – | – | –
14 | NCI-H1623 | – | – | – | – | – | 0.548 | 0.502 | 0.499 | 0.572 | 0.52 | 0.95 | 0.81 | 0.984 | 0.839 | 0.896 | 0.626 | 0.578 | 0.515 | 0.598 | 0.568
15 | NCI-H1650 | – | – | – | – | – | 0.304 | 0.329 | 0.396 | 0.271 | 0.179 | 1.12 | 1.06 | 1.18 | 0.91 | 0.558 | 0.429 | 0.427 | 0.494 | 0.449 | 0.295
16 | NCI-H1703 | 0.67 | 0.466 | 1.06 | 0.148 | 0.0677 | – | – | – | – | – | 0.379 | 0.309 | 0.301 | 0.382 | 0.303 | – | – | – | – | –
17 | NCI-H1792 | 0.58 | 0.56 | 0.513 | 0.316 | 0.112 | 0.867 | 0.8 | – | 0.72 | 0.962 | – | – | – | – | – | 0.371 | – | – | 0.176 | 0.0627
18 | NCI-H2170 | – | – | – | – | – | 0.626 | 0.617 | 0.528 | 0.529 | 0.677 | 1 | 1.02 | 0.996 | 1.02 | 0.975 | 0.362 | 0.414 | 0.396 | 0.419 | 0.437
19 | NCI-H2342 | – | – | – | – | – | 0.365 | 0.303 | 0.347 | 0.285 | 0.302 | 1.05 | 0.947 | 1.09 | 1.04 | 1.03 | 0.744 | 0.573 | 0.737 | 0.48 | 0.584
20 | SW 900 | – | – | – | – | – | 0.637 | 0.627 | 0.543 | 0.206 | 0.153 | 0.895 | 0.743 | 0.759 | 0.536 | 0.738 | 0.556 | 0.584 | 0.726 | 0.493 | 0.325

Reference: the supplement of paper PMC10307832
